How the values were obtained:
Type in all cases: cell-based, human
8-OHdG = experiment: Oxidative DNA damage marker 8-OHdG immunofluorescence; conditions: 48 h; for 8-OHdG reactivity: protective concentration of compound + 20 nM annonacin
Procedure: For immunostaining, cells were seeded in differentiation medium, on 24-well microplates containing PLO/FN-coated 13 mm Ø coverslips, and treated for 48 h as previously described. On the readout day, the medium was removed and cells were fixed, permeabilized and blocked as before. Primary antibody dilutions were made in 1.5% NHS in PBS (Supplementary Table S1) and incubated overnight at 4 °C. On the following day, the coverslips were washed three times with PBS and incubated with host-specific fluorescence secondary antibodies (Supplementary Table S1), for 2 h at RT, protected from light. After another three washes with PBS, cell nuclei were stained with 1:5,000 DAPI (4’,6-diamidino-2-phenylindole, Thermo Fisher Scientific) in PBS, for 15 min at RT. The coverslips were mounted in mowiol and left to dry for 24 h before imaging. Image acquisition for FI quantification was done with a 200 × magnification (20 × objective, 10 × intermediate magnification), or 400x (40 × objective, 10 × intermediate magnification) in the case of pSC-35 and AT8 immunostaining, on a fluorescence microscope Leica-DFC9000GTC (Leica). In the case of phospho-tau AT8, Z-stacks consisting of 18 plane images with a step size of 1 μm were acquired. The image acquisition parameters were identical for all conditions. Quantification of 8-OHdG (8-hydroxyguanosine) FI and tau species was performed using the ImageJ software. Ten-to-fifteen images per condition across triplicates, from different view fields, were used for this purpose. Briefly, TIFF exported images were submitted to background subtraction using the rolling ball method with a radius of 50 pixels. For 8-OHdG analysis, a channel-specific threshold was applied to all images to define the ROI and FI was measured and normalized to the cell number, determined by the DAPI channel. The average value of the different view fields per experimental condition was taken and reported as fold change compared to the control (DMSO-treated) condition. For the analysis of phospho-tau AT270 and pan-tau reactivity, channel specific thresholds were applied to all images. The DAPI channel was used to define nuclei from viable cells, by selecting particles with a size above 15 µm^2 and a circularity of 0.3–1.0. […] These masks were used to quantify the number of somas expressing each of these tau species, as well as the respective FI. The number of AT270-positive somas was divided by the number of pan-tau-positive somas and expressed as a percentage. […] For quantification of pSC-35 and AT8 speckle number and FI, we used CellProfiler™ 4 (https://cellprofiler.org/, Broad Institute Inc., Cambridge, MA, USA) speckle counting pipeline. […]

LUHMES cells = experiment: Mitochondrial membrane potential (JC-1 probe); conditions: 24 h
Procedure: In PLO/FN-coated 24-well microplates, cells were simultaneously incubated with 20 nM of annonacin and the selected concentrations of Nrf2-pathway activators, in glucose-reduced medium, over the course of 24 h. After that, the medium was removed and cells were washed once with warm HBSS, followed by incubation with 5 µM JC-1 solution in HBSS, for 20 min at 37 °C. For the positive control, the mitochondrial oxidative phosphorylation uncoupler, CCCP, was used at a concentration of 50 µM. After the incubation period, cells were washed with HBSS, and fresh HBSS was added to keep the cells viable during live-image acquisition. Image acquisition was done on a fluorescence microscope Leica-DFC9000GTC (Leica, Frankfurt, Germany). Environmental conditions were kept steady at 37 °C with a 5% CO2 atmosphere during the entire acquisition time. Ten to fifteen images from different fields of view, dispersed across triplicates, were acquired with 200 × magnification (20 × objective, 10 × intermediate magnification), using the same image acquisition parameters for all conditions. The fluorescence of JC-1 monomers was captured on the green channel (λ Ex/Em = 475/519 nm) and the fluorescence of JC-1 aggregates was capture on the red channel (λ Ex/Em = 555/594 nm). Quantification of FI (fluorescence intensities) of JC-1 monomeric and aggregated forms was done using the ImageJ software (http://rsb.info.nih.gov/ij/, ImageJ bundled with 64-bit Java 8). Briefly, TIFF exported images were submitted to background subtraction using the rolling ball method with a radius of 50 pixels. Channel-specific thresholds were applied to all images to define the ROI (region of interest) and FI were measured as integrated density. Data were reported as the ratio between JC-1 aggregates and monomers, obtained by dividing the FI of the JC-1 aggregated form by the FI of the monomeric form.

[1] = tested on: Nrf2-knockdown LUHMES cells; experiment: Cell viability in Nrf2-knockdown cells exposed to annonacin (calcein); conditions: Nrf2 siRNA, compound + 20 nM annonacin, 48 h
Procedure: The calcein AM green dye (Thermo Fisher Scientific) was diluted in DMSO to obtain a 1 mM stock solution. The stock solution was further diluted in HBSS (Hanks' balanced salt solution), immediately before incubation, to achieve a final working concentration of 1 μM in the well. The medium was removed, the cells were washed once with warm HBSS, and 200 µl of calcein working solution was added to each well. For background correction, 200 µl of calcein working solution was added to a well without cells (background control). After 30 min of incubation at 37 °C, the calcein solution was removed and the cells were washed once with HBSS. Cells were lysed in a 200 µl volume of 1% Triton™ X-100 in PBS (phosphate buffered saline) and the lysate transferred to a 96‐well black plate for the readout. The fluorescence signal was measured on a FLUOstar® Omega plate reader (BMG LabTech, Ortenberg, Germany) at λ Ex/Em = 485/530 nm and data was analyzed with the MARS data analysis software (BMG LabTech). For background correction, we subtracted the background control signal from the measured values of all experimental conditions. Data were expressed as percentage of viability relative to the control (DMSO-treated) condition.
LUHMES cells seeded on PLO/FN coated 48-well microplates were left to differentiate for 5 days, before being transfected with 25 nM of NRF2-targeting (gene ID 4780) or negative control siRNA (siTOOLs Biotech, Planegg, Germany), in Opti-MEM + GlutaMax medium (Thermo Fisher Scientific) with 0.4% of lipofectamine RNAiMax. After 24 h, the medium was removed and replaced with glucose-reduced medium for the pharmacological treatments, similar as described in the previous sections. Cell viability was determined by calcein assay, after 48 h of treatment, as explained before.

[2] = tested on: pSer-202 and pThr-205 tau; experiment: AT8 (pSer-202/Thr-205 tau) immunofluorescence; conditions: 48 h
Procedure: For immunostaining, cells were seeded in differentiation medium, on 24-well microplates containing PLO/FN-coated 13 mm Ø coverslips, and treated for 48 h as previously described. On the readout day, the medium was removed and cells were fixed, permeabilized and blocked as before. Primary antibody dilutions were made in 1.5% NHS in PBS (Supplementary Table S1) and incubated overnight at 4 °C. On the following day, the coverslips were washed three times with PBS and incubated with host-specific fluorescence secondary antibodies (Supplementary Table S1), for 2 h at RT, protected from light. After another three washes with PBS, cell nuclei were stained with 1:5,000 DAPI (4’,6-diamidino-2-phenylindole, Thermo Fisher Scientific) in PBS, for 15 min at RT. The coverslips were mounted in mowiol and left to dry for 24 h before imaging. Image acquisition for FI quantification was done with a 200 × magnification (20 × objective, 10 × intermediate magnification), or 400x (40 × objective, 10 × intermediate magnification) in the case of pSC-35 and AT8 immunostaining, on a fluorescence microscope Leica-DFC9000GTC (Leica). In the case of phospho-tau AT8, Z-stacks consisting of 18 plane images with a step size of 1 μm were acquired. The image acquisition parameters were identical for all conditions. Quantification of 8-OHdG (8-hydroxyguanosine) FI and tau species was performed using the ImageJ software. Ten-to-fifteen images per condition across triplicates, from different view fields, were used for this purpose. Briefly, TIFF exported images were submitted to background subtraction using the rolling ball method with a radius of 50 pixels. For 8-OHdG analysis, a channel-specific threshold was applied to all images to define the ROI and FI was measured and normalized to the cell number, determined by the DAPI channel. The average value of the different view fields per experimental condition was taken and reported as fold change compared to the control (DMSO-treated) condition. For the analysis of phospho-tau AT270 and pan-tau reactivity, channel specific thresholds were applied to all images. The DAPI channel was used to define nuclei from viable cells, by selecting particles with a size above 15 µm^2 and a circularity of 0.3–1.0. The obtained mask was submitted to “close” and “fill holes” processes to smooth the objects and fill in small holes, followed by nine “dilations” and one “watershed” to obtain a ROI covering exclusively the soma of viable cells. The obtained mask was combined with threshold images of phospho-tau AT270 and pan-tau in order to define the respective ROI of each tau species. These masks were used to quantify the number of somas expressing each of these tau species, as well as the respective FI. The number of AT270-positive somas was divided by the number of pan-tau-positive somas and expressed as a percentage. The AT270 FI was normalized to the pan-tau FI and the ratio presented as fold change relative to the control (DMSO-treated) condition. For quantification of pSC-35 and AT8 speckle number and FI, we used CellProfiler™ 4 (https://cellprofiler.org/, Broad Institute Inc., Cambridge, MA, USA) speckle counting pipeline. Twenty-to-thirty images per condition across triplicates were used for this purpose. ImageJ BIOP JACoP plugin was used for estimating co-localization of AT8 with DAPI-stained nuclei. Data were reported as fold change compared to the control (DMSO-treated) condition, or as Pearsonʹs coefficient values in case the of AT8 co-localization data.

[3] = protective concentration of compound + 20 nM annonacin
[4] = protective concentration of compound + 20 nM annonacin, compared to annonacin
[5] = 20 nM annonacin alone, vs control

| SMILES | 8-OHdG reactivity (8-OHdG) | mitochondrial membrane potential (JC-1 aggregates/monomers ratio) (LUHMES cells; [3]) | protective effects against annonacin toxicity in Nrf2-knockdown cells [1] | Pearson´s coefficient between AT8 reactivity and DAPI-stained nuclei (r) [2, 3] | AT8 fluorescence intensity [2, 4] | number of AT8 speckles [2, 4] | increase of 8-OHdG reactivity (8-OHdG; 20 nM annonacin alone) | mitochondrial membrane potential (JC-1 aggregates/monomers ratio) (LUHMES cells; 20 nM annonacin alone, glucose-reduced medium) | Pearson´s coefficient between AT8 reactivity and DAPI-stained nuclei (r) ([2]; 20 nM annonacin alone) | AT8 fluorescence intensity [2, 5] | number of AT8 speckles per nucleus [2, 5] |
| --- | --- | --- | --- | --- | --- | --- | --- | --- | --- | --- | --- |
| Cn1c(Nc2nc3ccc(C(F)(F)F)cc3s2)nc2cc(C(=O)NCCOCCO)ccc21 [HPP-D] | small but significant reduction of 8-OHdG reactivity | rescue the ΔψM from annonacin-induced depolarization | slightly attenuated in Nrf2-knockdown cells |  |  |  |  |  |  |  |  |
| C=CC(C)(C)c1cc(/C=C/C(=O)c2ccc(O)cc2)c(OC)cc1O [licochalcone A] | levels of oxidative DNA damage comparable to healthy control cells | aggravated mitochondrial depolarization | slightly attenuated in Nrf2-knockdown cells | 0.38 | significant reduction | significant reduction of the number of AT8 speckles |  |  |  |  |  |
| O=C1[C@H](CC[C@H](O)c2ccc(F)cc2)[C@@H](c2ccc(O)cc2)N1c1ccc(F)cc1 [ezetimibe] | levels of oxidative DNA damage comparable to healthy control cells | aggravated mitochondrial depolarization | did not observe an abolishment of the neuroprotective effects | 0.45 | significant reduction | significant reduction of the number of AT8 speckles |  |  |  |  |  |
| CCCCCCCCCCCC[C@@H](O)[C@H]1CC[C@H]([C@H](O)CCCC[C@H](O)CCCCC[C@@H](O)CC2=CC(C)OC2=O)O1 (some centres unmarked) [annonacin] |  |  |  |  |  |  | 1.5 fold over control | significant mitochondrial depolarization | 0.58 | statistically higher AT8 fluorescence intensity | non-significant propensity to increase the number of AT8 speckles per nucleus |

— publication PMC11362529, “Exploring the neuroprotective potential of Nrf2-pathway activators against annonacin toxicity” (Scientific Reports, 2024)
